Source: patent US20120189673A1, “POLYPEPTIDES AND USES THEREOF” (priority 2009, published 2012)
Entries after “also recorded” stand apart in the source; their conditions may differ. Where two headings read alike, the source gives them in different places.

How the values were obtained:
[1] = system: intrinsic pathway of coagulation in normal human plasma; assay: Clotting assay: activated partial thromboplastin time (aPTT); format: biochemical
Experimental: Clotting assays. All clotting times were measured using an Amelung coagulometer. Activated partial thromboplastin time (aPTT) was measured by incubating the peptides diluted in sterile water at the indicated concentrations, with 100 μL citrated human plasma for 1 minute followed by the addition of 100 μL aPTT reagent (aPTT Automate, Diagnostica Stago) for 60 seconds at 37° C. Clotting was initiated by the addition of 100 μL of a 25-mM CaCl2 solution. In the prothombrin time assay (PT), clotting was initiated by the addition of 100 μL Thrombomax with calcium (PT reagent; Sigma-Aldrich). For measuring the thrombin clotting time (TCT), clotting was initiated by the addition of 100 μL Accuclot thrombin time reagent (TCT reagent; Sigma-Aldrich).

E. coli = assay: Viable count analysis, E. coli; format: cell-based, Escherichia coli; conditions: for antibacterial activity (cfu) / bactericidal activity in presence of human plasma: 10 mM Tris; for antibacterial activity (cfu): pH 7.4 buffer, dose-response (FIG. 34C); for bactericidal activity in presence of human plasma: 0.15 M NaCl, pH 7.4 with 20% human citrate plasma, versus buffer; for bactericidal activity in heat-inactivated plasma: 20% heat-inactivated human citrate plasma
Experimental: Viable count analysis. E. coli ATCC 25922 bacteria were grown to mid-logarithmic phase in Todd-Hewitt (TH) medium. Bacteria were washed and diluted in 10 mM Tris, pH 7.4 containing 5 mM glucose. E. coli ATCC 25922 (50 μl; 2×10^6 cfu/ml) were incubated, at 37° C. for 2 h with peptides at the indicated concentrations. Other experiments with the TFPI-peptides and LL-37 were performed in 10 mM Tris, pH 7.4, containing also 0.15 M NaCl, with normal or heat inactivated 20% citrate-plasma (PP). Serial dilutions of the incubation mixture were plated on TH agar, followed by incubation at 37° C. overnight and cfu determination.
Viable count analysis—E. coli strains were grown to mid-logarithmic phase in Todd-Hewitt (TH). P. aeruginosa strains were grown in TH overnight. Bacteria were washed and diluted in 10 mM Tris, pH 7.4 containing 5 mM glucose. 2×10^6 cfu/ml bacteria were incubated in 50 μl, at 37° C. for 2 h with the C-terminal TFPI-derived peptides GGL27, TKR22, or LIK17 at the indicated concentrations. Additional experiments were performed in 10 mM Tris, pH 7.4, containing 0.15 M NaCl, either alone or with 20% normal or heat inactivated citrate-plasma. Serial dilutions of the incubation mixture were plated on TH agar, followed by incubation at 37° C. overnight and cfu determination.

[2] = Liposome leakage assay (carboxyfluorescein release); conditions: for CF release from liposomes: 10 mM Tris-buffer; for share of the maximal CF release: within 5-10 minutes, 1 μM of peptides
From the text: Liposome preparation and leakage assay. The liposomes investigated were either zwitterionic (DOPC/cholesterol 60/40 mol/mol or DOPC without cholesterol) or anionic (DOPE/DOPG 75/25 mol/mol). DOPG (1,2-Dioleoyl-sn-Glycero-3-Phosphoglycerol, monosodium salt), DOPC (1,2-dioleoyl-sn-Glycero-3-phosphocholine), and DOPE (1,2-dioleoyl-sn-Glycero-3-phosphoetanolamine) were all from Avanti Polar Lipids (Alabaster, USA) and of >99% purity, while cholesterol (>99% purity), was from Sigma-Aldrich (St. Louis, USA). Due to the long, symmetric and unsaturated acyl chains of these phospholipids, several methodological advantages are reached. In particular, membrane cohesion is good, which facilitates very stable, unilamellar, and largely defect-free liposomes (observed from cryo-TEM) and well defined supported lipid bilayers (observed by ellipsometry and AFM), allowing detailed values on leakage and adsorption density to be obtained. The lipid mixtures were dissolved in chloroform, after which solvent was removed by evaporation under vacuum overnight. Subsequently, 10 mM Tris buffer, pH 7.4, was added together with 0.1 M carboxyfluorescein (CF) (Sigma, St. Louis, USA). After hydration, the lipid mixture was subjected to eight freeze-thaw cycles consisting of freezing in liquid nitrogen and heating to 60° C. Unilamellar liposomes of about Ø140 nm were generated by multiple extrusions through polycarbonate filters (pore size 100 nm) mounted in a LipoFast miniextruder (Avestin, Ottawa, Canada) at 22° C. Untrapped CF was removed by two subsequent gel filtrations (Sephadex G-50, GE Healthcare, Uppsala, Sweden) at 22° C., with Tris buffer as eluent. CF release from the liposomes was determined by monitoring the emitted fluorescence at 520 nm from a liposome dispersion (10 mM lipid in 10 mM Tris, pH 7.4). An absolute leakage scale was obtained by disrupting the liposomes at the end of each experiment through addition of 0.8 mM Triton X-100 (Sigma-Aldrich, St. Louis, USA). A SPEX-fluorolog 1650 0.22-m double spectrometer (SPEX Industries, Edison, USA) was used for the liposome leakage assay in Tris buffer in the absence and presence of liposomes under conditions described above. Measurements were performed in triplicate at 37° C.
Liposome preparation and leakage assay—The liposomes investigated were anionic (DOPE/DOPG 75125 mol/mol). DOPG (1,2-Dioleoyl-sn-Glycero-3-Phosphoglycerol, monosodium salt) and DOPE (1,2-dioleoyl-sn-Glycero-3-phoshoetanolamine) were both from Avanti Polar Lipids (Alabaster, USA) and of >99% purity. […] CF release from the liposomes was determined by monitoring the emitted fluorescence at 520 nm from a liposome dispersion (10 µM lipid in 10 mM Tris, pH 7.4). […]

Row | Sequence | activated partial thromboplastin time (aPTT) [1] | antibacterial activity (cfu) (E. coli) | bactericidal activity in presence of human plasma (E. coli) | bactericidal activity in heat-inactivated plasma (E. coli) | CF release from liposomes [2] | share of the maximal CF release [2] [%] | activated partial thromboplastin time (aPTT) ([1]; listed as GGL-27)
1 | LIKTKRKRKKQRVKIAY [LIK17] | impair the intrinsic pathway of coagulation | significant antibacterial activity | significantly enhanced | abolished the potentiation | caused CF release | ~80 | –
2 | GGLIKTKRKRKKQRVKIAYEEIFVKNM [GGL27, C-terminal peptide of TFPI, plasmin-generated] | impair the intrinsic pathway of coagulation | significant antibacterial activity | enhanced in human plasma; also recorded: significantly enhanced | largely abolished in heat-inactivated plasma; also recorded: abolished the potentiation | caused CF release | ~80 | impairs coagulation in a dose dependent manner
